{"source": "patent US5968838A", "about": "“Antiarrhythmic peptide from venom of spider Grammostola spatulata” (priority 1998, dated 1999)", "assay_type_in_all_cases": "cell-based, Rat", "key": {"GH3 cells": {"system": "GH3 cells", "experiment": "Cell Ca2+ of GH3 cells in isotonic saline (Fura-2)", "details": "10 μM peptide", "protocol": "(§1) Rat pituitary cell line GH3 was provided by Dr. S. Simasko, Department of VCAPP, Washington State University, Pullman, Wash., 99164 and the American Type Culture Collection, Rockville, Md. The cells were cultured in standard medium containing 82.5% Ham's F-10 nutrients (Gibco, Gaithersburg, Md.), 15 % heat inhibited horse serum (Gibco) and 2.5% fetal bovine serum (Gibco) at 37C in 10% CO2. Cells were fed twice per week and subcultured once per week. For Fura-2 fluorescence measurements, cells were plated on poly-L-lysine coated glass cover slips at 95% confluency, cultured under normal conditions and used between 3 to 6 days after plating.\nCa^2+ was measured on an SLM AB-2 fluorescence spectrometer (SLM Instruments, Rochester, N.Y.). […]\nAfter loading with Fura-2, the cover slip containing the GH3 cells was mounted in a custom made holder and placed in a quartz cuvette at an angle of 20 degrees to the excitation beam. The cells on the cover slip were exposed to various test solutions and the changes in calcium ion concentration were measured according to the following method. Fluorescence emission was collected from a group of about 10^5 cells located in the excitation path. Excitation beams at 340 nm (Ex340nm) and 380 nm (Ex380 nm) were used and the fluorescence intensities at 510 nm (Em5 10 nm) were monitored. […]"}, "[1]": {"system": "stretch activated channel", "experiment": "Fura-2 fluorescence ratio measurement of stretch activated channel activity: hypotonic cell swelling induced calcium increase (HICI) in GH3 cells", "protocol": "as §1\nCa^2+ was measured on an SLM AB-2 fluorescence spectrometer (SLM Instruments, Rochester, N.Y.). Cells plated on poly-L-lysine coated glass cover slips were loaded with Fura-2 in a loading solution containing 2 micromolar Fura-2/AM (disclosed in Grynkiewicz, G. et al., (1985) Journal of Biological Chemistry 260: 3440-3450) according to the following procedure. Cells were washed twice in phosphate buffered saline (PBS) solution. Cells were then incubated in the loading solution for 30 minutes at 25C. The cells were rinsed twice with PBS and incubated in the culture medium for 30 minutes at 25C. Experiments were performed within 1 hour after loading. […]\nAfter loading, the plated cells were exposed to various hypotonic and isotonic solutions and test solutions containing spider venom. Changes in the calcium ion concentration were measured according to the following method.\nAfter loading with Fura-2, the cover slip containing the GH3 cells was mounted in a custom made holder and placed in a quartz cuvette at an angle of 20 degrees to the excitation beam. The cells on the cover slip were exposed to various test solutions and the changes in calcium ion concentration were measured according to the following method. Fluorescence emission was collected from a group of about 10^5 cells located in the excitation path. Excitation beams at 340 nm (Ex340nm) and 380 nm (Ex380 nm) were used and the fluorescence intensities at 510 nm (Em5 10 nm) were monitored. […] Fluorescence emission data was collected for times up to 600 to 1200 seconds depending on the solution added to the cells.\nAn increase in the Ca^2+ concentration caused an increase in the fluorescence at Em510 nm/Ex340nm and at the same time, a decrease at Em510/Ex380nm. The ratio of the two (R) was used to calculate the Ca^2+ concentration using the following formula: [formula] where kd is the equilibrium constant; Rmax is the ratio and Fb is the fluorescence intensity at Ex380nm when Fura-2 is saturated with Ca^2+, Rmin is the ratio and Ff is the fluorescence intensity at Ex380nm when Fura-2 is not bound by Ca^2+. […]"}, "L-type Ca^2+ channels": {"system": "L-type Ca^2+ channels", "experiment": "Depolarization (high K+) induced Ca2+ increase in GH3 cells, three consecutive depolarizations", "method": "After loading with Fura-2, the cover slip containing the GH3 cells was mounted in a custom made holder and placed in a quartz cuvette at an angle of 20 degrees to the excitation beam. The cells on the cover slip were exposed to various test solutions and the changes in calcium ion concentration were measured according to the following method. Fluorescence emission was collected from a group of about 10^5 cells located in the excitation path. Excitation beams at 340 nm (Ex340nm) and 380 nm (Ex380 nm) were used and the fluorescence intensities at 510 nm (Em5 10 nm) were monitored. […] Fluorescence emission data was collected for times up to 600 to 1200 seconds depending on the solution added to the cells. […]"}}, "note": "Where two headings read alike, the source gives them in different places. Ends that are not written are not given here."}
{"compound": "YCQKWMWTCDEERKCCEGLVCRLWCKKKIEW (cysteine pairing not given here) [α Mechanotoxin]", "values": [{"measurement": "effect on cell Ca2+ in isotonic saline", "setting": "GH3 cells", "result": "decreases cell Ca^2+ to levels seen in the absence of extracellular Ca^2+"}, {"measurement": "association rate", "setting": "[1]; block of HICI in GH3 cells", "result": "approximately 10^3 m^-1 s^-1"}, {"measurement": "dissociation rate", "setting": "[1]; block of HICI in GH3 cells", "result": "~0.01", "unit": "s⁻¹"}, {"measurement": "Kd", "setting": "[1]; block of HICI in GH3 cells, read-out: equilibrium constant", "result": "~10", "unit": "µM"}, {"measurement": "block of hypotonic cell swelling induced calcium increase (HICI)", "setting": "[1]; purified peptide, GH3 cells", "result": "reversibly blocks"}]}
{"compound": "COC(=O)C1=C(C)NC(C)=C(C(=O)OC)C1c1ccccc1[N+](=O)[O-]", "note": "[nifedipine]", "values": [{"measurement": "block of depolarization induced Ca2+ increase (comparators, stated by contrast)", "setting": "L-type Ca^2+ channels", "result": "block"}]}
{"compound": "[Gd+3]", "note": "[Gd^3+]", "values": [{"measurement": "block of depolarization induced Ca2+ increase (comparators, stated by contrast)", "setting": "L-type Ca^2+ channels; GH3 cells, concentration not given", "result": "block"}]}
